Test results reported in article PMC5025758 (Nature Communications, 2016).

How the values were obtained:
NMDA Channel (NR2B) = molecular target: T1, NMDA Channel (NR2B) (Homo sapiens, UniProt Q13224); test: cell-based; design: off-target selectivity panel, receptor antagonist, channel blocker or transporter inhibition mode, pXC50; conditions: read-out: pXC50 (blocker / transporter inhibition) (converted)
T1 construct: gene GRIN2B
Excerpt: (§1) From the outset, GSK3011724A, an indazole sulfonamide (Fig. 1a), represented an attractive compound for early stage drug discovery based on its anti-mycobacterial potency, small size and moderate lipophilicity (Table 1). Further profiling in vitro using standard assays, such as the hERG ion channel and cytochrome P450 isoforms supported this view (Table 1). […] A description of this optimization effort along with a thorough discussion of the drug development potential and liabilities of this series will be the subject of a future publication.

Serotonin 5HT1B [1] = molecular target: T2, Serotonin 5HT1B (Homo sapiens, UniProt P28222); test: cell-based; design: off-target selectivity panel, receptor antagonist, channel blocker or transporter inhibition mode, pXC50; conditions: antagonist mode; read-out: pXC50 (antagonist) (converted)
T2 construct: gene HTR1B
Excerpt: as §1

Kv1.5 = molecular target: T3, Kv1.5 (Homo sapiens, UniProt P22460); test: cell-based; design: off-target selectivity panel, receptor antagonist, channel blocker or transporter inhibition mode, pXC50; conditions: read-out: pXC50 (blocker / transporter inhibition) (converted)
T3 construct: gene KCNA5
Excerpt: as §1

Serotonin 5HT3 [2] = molecular target: T4, Serotonin 5HT3 (Homo sapiens, UniProt P46098); test: cell-based; design: off-target selectivity panel, receptor antagonist, channel blocker or transporter inhibition mode, pXC50; conditions: read-out: pXC50 (blocker / transporter inhibition) (converted)
T4 construct: gene HTR3A
Excerpt: as §1

KasA = molecular target: T5, KasA (Mycobacterium tuberculosis, UniProt P9WQD9); test: […] Å co-crystal structure; […]; also chemoproteomic Kd app […] and […] enzyme inhibition at […]; format: binding
T5 construct: recombinant KasA from pET28a-kasA

Pks10 = Pks10 (Mycobacterium tuberculosis, UniProt Q7VEV2); format: biochemical
Muscarine M1 = molecular target: T6, Muscarine M1 (Homo sapiens, UniProt P11229); test: cell-based; design: off-target selectivity panel, receptor agonist or channel opener mode, pXC50; conditions: agonist mode; read-out: pXC50 (agonist) (converted)
T6 construct: gene CHRM1
Excerpt: as §1

Adrenergic α2C = molecular target: T7, Adrenergic α2C (Homo sapiens, UniProt P18825); test: cell-based; design: off-target selectivity panel, receptor agonist or channel opener mode, pXC50; conditions: agonist mode; read-out: pXC50 (agonist) (converted)
T7 construct: gene ADRA2C
Excerpt: as §1

Adenosine A2a = molecular target: T8, Adenosine A2a (Homo sapiens, UniProt P29274); test: cell-based; design: off-target selectivity panel, receptor agonist or channel opener mode, pXC50; conditions: agonist mode; read-out: pXC50 (agonist) (converted)
T8 construct: gene ADORA2A
Excerpt: as §1

Serotonin 5HT2A = molecular target: T9, Serotonin 5HT2A (Homo sapiens, UniProt P28223); test: cell-based; design: off-target selectivity panel, receptor agonist or channel opener mode, pXC50; conditions: agonist mode; read-out: pXC50 (agonist) (converted)
T9 construct: gene HTR2A
Excerpt: as §1

Adrenergic β2 = molecular target: T10, Adrenergic β2 (Homo sapiens, UniProt P07550); test: cell-based; design: off-target selectivity panel, receptor agonist or channel opener mode, pXC50; conditions: agonist mode; read-out: pXC50 (agonist) (converted)
T10 construct: gene ADRB2
Excerpt: as §1

Cannabinoid CB2 = molecular target: T11, Cannabinoid CB2 (Homo sapiens, UniProt P34972); test: cell-based; design: off-target selectivity panel, receptor agonist or channel opener mode, pXC50; conditions: agonist mode; read-out: pXC50 (agonist) (converted)
T11 construct: gene CNR2
Excerpt: as §1

Muscarine M2 = molecular target: T12, Muscarine M2 (Homo sapiens, UniProt P08172); test: cell-based; design: off-target selectivity panel, receptor agonist or channel opener mode, pXC50; conditions: agonist mode; read-out: pXC50 (agonist) (converted)
T12 construct: gene CHRM2
Excerpt: as §1

α1 nicotinic AChR = molecular target: T13, α1 nicotinic AChR (Homo sapiens, UniProt P02708); test: cell-based; design: off-target selectivity panel, receptor agonist or channel opener mode, pXC50; conditions: opener mode; read-out: pXC50 (opener) (converted)
T13 construct: gene CHRNA1
Excerpt: as §1

Dopamine D2 = molecular target: T14, Dopamine D2 (Homo sapiens, UniProt P14416); test: cell-based; design: off-target selectivity panel, receptor agonist or channel opener mode, pXC50; conditions: agonist mode; read-out: pXC50 (agonist) (converted)
T14 construct: gene DRD2
Excerpt: as §1

Opioid μ = molecular target: T15, Opioid μ (Homo sapiens, UniProt P35372); test: cell-based; design: off-target selectivity panel, receptor agonist or channel opener mode, pXC50; conditions: agonist mode; read-out: pXC50 (agonist) (converted)
T15 construct: gene OPRM1
Excerpt: as §1

Serotonin 5HT2C = molecular target: T16, Serotonin 5HT2C (Homo sapiens, UniProt P28335); test: cell-based; design: off-target selectivity panel, receptor agonist or channel opener mode, pXC50; conditions: agonist mode; read-out: pXC50 (agonist) (converted)
T16 construct: gene HTR2C
Excerpt: as §1

Opioid κ = molecular target: T17, Opioid κ (Homo sapiens, UniProt P41145); test: cell-based; design: off-target selectivity panel, receptor agonist or channel opener mode, pXC50; conditions: agonist mode; read-out: pXC50 (agonist) (converted)
T17 construct: gene OPRK1
Excerpt: as §1

AhR = AhR (Homo sapiens, UniProt P35869); test: cell-based; design: off-target selectivity panel, receptor agonist or channel opener mode, pXC50; conditions: agonist mode; read-out: pXC50 (agonist) (converted)
Excerpt: as §1

Serotonin 5HT1B [3] = molecular target: T2, Serotonin 5HT1B; test: cell-based; design: off-target selectivity panel, receptor agonist or channel opener mode, pXC50; conditions: agonist mode; read-out: pXC50 (agonist) (converted)
Excerpt: as §1

PXR = molecular target: T18, PXR (Homo sapiens, UniProt O75469); test: cell-based; design: off-target selectivity panel, receptor agonist or channel opener mode, pXC50; conditions: agonist mode; read-out: pXC50 (agonist) (converted)
T18 construct: gene NR1I2
Excerpt: as §1

Serotonin 5HT3 [4] = molecular target: T4, Serotonin 5HT3; test: cell-based; design: off-target selectivity panel, receptor agonist or channel opener mode, pXC50; conditions: opener mode; read-out: pXC50 (opener) (converted)
Excerpt: as §1

NQO2 = NQO2 (Homo sapiens, UniProt P16083); test: chemoproteomic competition binding in mixed HEK293/K562/placenta extract, LC-MS/MS; format: biochemical
Chain of NQO2 (P16083 whole entry): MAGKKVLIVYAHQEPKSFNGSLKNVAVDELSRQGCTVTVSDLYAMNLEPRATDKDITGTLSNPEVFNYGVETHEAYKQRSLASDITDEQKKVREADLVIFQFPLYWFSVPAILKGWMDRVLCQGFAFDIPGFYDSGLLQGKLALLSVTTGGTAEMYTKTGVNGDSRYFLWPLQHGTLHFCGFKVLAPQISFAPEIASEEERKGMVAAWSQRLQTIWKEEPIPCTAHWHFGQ

T4 sequence (P46098 whole entry): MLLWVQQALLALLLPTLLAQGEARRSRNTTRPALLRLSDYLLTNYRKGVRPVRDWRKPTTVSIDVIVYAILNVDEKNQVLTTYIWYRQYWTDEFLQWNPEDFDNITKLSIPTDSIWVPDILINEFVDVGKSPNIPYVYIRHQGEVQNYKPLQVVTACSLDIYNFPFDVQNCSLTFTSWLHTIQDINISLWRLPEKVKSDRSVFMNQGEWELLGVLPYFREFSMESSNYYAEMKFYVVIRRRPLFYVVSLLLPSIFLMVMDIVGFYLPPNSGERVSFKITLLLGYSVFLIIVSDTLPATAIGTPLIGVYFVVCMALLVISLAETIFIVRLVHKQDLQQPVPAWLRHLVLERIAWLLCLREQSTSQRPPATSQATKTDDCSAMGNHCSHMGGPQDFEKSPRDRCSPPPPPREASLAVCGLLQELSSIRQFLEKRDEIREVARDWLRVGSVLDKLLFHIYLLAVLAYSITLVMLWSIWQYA
T2 sequence (P28222 whole entry): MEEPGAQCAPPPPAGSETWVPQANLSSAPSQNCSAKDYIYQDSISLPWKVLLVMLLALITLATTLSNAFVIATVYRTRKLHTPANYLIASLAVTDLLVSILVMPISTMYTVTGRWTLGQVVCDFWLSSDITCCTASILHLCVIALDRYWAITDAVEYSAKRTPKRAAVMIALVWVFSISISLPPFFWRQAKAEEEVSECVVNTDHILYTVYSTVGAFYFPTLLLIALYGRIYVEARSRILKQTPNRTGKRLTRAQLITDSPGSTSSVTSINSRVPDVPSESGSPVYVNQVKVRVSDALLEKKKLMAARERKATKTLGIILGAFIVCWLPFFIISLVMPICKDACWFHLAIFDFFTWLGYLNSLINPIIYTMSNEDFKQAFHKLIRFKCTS
T10 sequence (P07550 whole entry): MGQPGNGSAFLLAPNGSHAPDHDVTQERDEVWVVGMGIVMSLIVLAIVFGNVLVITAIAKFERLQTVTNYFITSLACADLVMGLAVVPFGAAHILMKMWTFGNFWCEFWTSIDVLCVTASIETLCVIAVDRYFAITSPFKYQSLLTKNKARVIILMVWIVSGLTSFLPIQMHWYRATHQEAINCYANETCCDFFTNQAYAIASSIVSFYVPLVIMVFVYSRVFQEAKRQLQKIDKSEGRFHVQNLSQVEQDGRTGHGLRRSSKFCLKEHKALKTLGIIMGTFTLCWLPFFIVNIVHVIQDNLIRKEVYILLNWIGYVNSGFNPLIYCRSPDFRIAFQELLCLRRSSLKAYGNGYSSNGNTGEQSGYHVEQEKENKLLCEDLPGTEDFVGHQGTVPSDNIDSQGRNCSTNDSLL
Chain of Pks10 (Q7VEV2 whole entry, looked up): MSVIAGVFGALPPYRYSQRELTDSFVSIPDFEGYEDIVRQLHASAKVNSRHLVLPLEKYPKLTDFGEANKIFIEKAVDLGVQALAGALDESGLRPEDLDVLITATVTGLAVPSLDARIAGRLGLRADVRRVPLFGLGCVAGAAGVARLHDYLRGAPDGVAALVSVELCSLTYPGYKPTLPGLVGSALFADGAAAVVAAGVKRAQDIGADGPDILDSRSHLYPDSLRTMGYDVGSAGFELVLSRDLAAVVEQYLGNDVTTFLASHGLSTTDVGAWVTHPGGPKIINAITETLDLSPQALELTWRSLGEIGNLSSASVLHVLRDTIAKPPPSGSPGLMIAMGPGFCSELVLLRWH
T5 sequence (P9WQD9 whole entry): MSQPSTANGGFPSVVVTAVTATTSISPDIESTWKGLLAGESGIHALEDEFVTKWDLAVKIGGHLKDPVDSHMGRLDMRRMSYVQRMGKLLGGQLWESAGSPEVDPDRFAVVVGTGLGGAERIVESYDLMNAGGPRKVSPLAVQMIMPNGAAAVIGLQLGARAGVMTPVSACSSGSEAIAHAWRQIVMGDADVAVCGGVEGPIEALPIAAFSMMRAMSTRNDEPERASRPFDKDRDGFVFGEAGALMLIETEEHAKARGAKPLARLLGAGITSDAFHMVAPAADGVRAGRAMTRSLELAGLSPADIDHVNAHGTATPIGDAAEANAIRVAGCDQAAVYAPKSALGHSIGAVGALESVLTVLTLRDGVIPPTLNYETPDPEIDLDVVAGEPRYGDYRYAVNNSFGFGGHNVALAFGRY
T9 sequence (P28223 whole entry, looked up): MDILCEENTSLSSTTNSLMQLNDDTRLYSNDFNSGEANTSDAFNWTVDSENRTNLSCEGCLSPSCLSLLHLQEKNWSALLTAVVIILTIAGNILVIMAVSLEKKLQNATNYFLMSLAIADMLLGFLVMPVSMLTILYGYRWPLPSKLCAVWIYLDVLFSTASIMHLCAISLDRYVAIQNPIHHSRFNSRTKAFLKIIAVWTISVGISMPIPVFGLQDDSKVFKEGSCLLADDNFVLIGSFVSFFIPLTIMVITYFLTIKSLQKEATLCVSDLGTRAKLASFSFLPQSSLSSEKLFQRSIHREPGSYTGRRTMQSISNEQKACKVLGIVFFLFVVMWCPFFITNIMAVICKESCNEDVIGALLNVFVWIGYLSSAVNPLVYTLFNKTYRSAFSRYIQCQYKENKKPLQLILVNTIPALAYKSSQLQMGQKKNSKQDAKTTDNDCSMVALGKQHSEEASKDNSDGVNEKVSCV
T16 sequence (P28335 whole entry): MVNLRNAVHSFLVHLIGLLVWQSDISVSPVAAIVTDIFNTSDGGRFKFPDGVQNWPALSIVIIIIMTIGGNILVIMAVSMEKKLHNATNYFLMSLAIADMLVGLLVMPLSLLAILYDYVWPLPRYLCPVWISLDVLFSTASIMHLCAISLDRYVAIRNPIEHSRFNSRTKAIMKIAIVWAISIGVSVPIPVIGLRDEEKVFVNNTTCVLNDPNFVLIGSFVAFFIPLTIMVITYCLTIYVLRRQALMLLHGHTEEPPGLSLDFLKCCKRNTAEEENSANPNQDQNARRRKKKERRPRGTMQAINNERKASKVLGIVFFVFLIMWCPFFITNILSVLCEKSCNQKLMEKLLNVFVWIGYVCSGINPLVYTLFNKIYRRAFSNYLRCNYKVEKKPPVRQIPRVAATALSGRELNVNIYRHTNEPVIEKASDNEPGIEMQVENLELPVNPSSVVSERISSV
T15 sequence (P35372 whole entry): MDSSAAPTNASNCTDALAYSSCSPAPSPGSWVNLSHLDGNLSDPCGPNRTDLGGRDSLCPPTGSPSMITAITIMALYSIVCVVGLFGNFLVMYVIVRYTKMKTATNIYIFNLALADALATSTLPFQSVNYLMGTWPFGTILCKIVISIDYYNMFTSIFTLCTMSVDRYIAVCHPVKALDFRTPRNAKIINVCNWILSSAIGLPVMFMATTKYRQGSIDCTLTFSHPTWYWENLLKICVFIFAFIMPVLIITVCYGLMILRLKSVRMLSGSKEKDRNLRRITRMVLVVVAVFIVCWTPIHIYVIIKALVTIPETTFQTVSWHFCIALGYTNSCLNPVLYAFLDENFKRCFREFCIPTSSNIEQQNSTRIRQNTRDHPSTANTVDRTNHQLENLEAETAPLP
T6 sequence (P11229 whole entry): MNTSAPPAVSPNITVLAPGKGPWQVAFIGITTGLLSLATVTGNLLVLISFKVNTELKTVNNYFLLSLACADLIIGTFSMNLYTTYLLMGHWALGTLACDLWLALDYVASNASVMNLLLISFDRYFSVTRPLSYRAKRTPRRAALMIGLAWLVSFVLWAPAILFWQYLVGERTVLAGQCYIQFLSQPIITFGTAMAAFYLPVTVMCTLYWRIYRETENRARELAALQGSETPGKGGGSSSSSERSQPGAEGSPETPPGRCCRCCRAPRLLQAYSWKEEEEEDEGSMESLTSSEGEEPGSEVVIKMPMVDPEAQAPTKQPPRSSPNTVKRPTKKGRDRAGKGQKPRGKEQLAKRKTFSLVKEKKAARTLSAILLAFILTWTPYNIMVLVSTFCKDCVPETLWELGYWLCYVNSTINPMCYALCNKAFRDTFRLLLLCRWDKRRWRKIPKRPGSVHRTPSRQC
Chain of AhR (P35869 whole entry): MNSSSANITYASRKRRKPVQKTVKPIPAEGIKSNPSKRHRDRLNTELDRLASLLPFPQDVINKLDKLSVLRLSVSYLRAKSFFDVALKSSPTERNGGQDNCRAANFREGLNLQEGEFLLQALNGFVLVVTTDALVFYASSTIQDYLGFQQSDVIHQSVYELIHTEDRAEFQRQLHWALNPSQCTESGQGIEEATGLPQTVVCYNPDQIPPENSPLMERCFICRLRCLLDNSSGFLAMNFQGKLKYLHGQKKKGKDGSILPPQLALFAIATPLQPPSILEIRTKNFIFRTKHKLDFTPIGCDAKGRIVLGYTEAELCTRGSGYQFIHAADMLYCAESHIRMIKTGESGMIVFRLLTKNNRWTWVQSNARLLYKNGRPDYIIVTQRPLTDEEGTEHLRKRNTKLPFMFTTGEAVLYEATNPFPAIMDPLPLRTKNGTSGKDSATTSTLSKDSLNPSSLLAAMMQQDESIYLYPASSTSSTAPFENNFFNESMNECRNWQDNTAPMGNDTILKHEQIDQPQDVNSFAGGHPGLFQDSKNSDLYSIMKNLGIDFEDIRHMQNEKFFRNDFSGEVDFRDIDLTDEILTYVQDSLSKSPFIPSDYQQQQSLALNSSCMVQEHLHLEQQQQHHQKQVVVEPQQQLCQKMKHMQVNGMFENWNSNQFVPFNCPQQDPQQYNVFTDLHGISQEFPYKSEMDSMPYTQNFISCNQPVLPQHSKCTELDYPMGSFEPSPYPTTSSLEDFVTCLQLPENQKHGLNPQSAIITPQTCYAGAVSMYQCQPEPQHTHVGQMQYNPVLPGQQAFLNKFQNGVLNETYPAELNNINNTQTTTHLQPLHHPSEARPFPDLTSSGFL

Structure (SMILES): CCCCS(=O)(=O)Nc1ccc2cnn(C)c2c1 [GSK3011724A]
- IC50 (NMDA Channel (NR2B)): > 50.1 µM
- IC50 (Serotonin 5HT1B [1]): > 100 µM
- IC50 (Kv1.5): > 50.1 µM
- IC50 (Serotonin 5HT3 [2]): > 50.1 µM
- Kd (KasA): 0.01 to 0.02 µM
- Kd (Pks10): 1.4 µM
- EC50 (Muscarine M1): > 50.1 µM
- EC50 (Adrenergic α2C): > 100 µM
- EC50 (Adenosine A2a): > 100 µM
- EC50 (Serotonin 5HT2A): > 25.1 µM
- EC50 (Adrenergic β2): > 100 µM
- EC50 (Cannabinoid CB2): > 100 µM
- EC50 (Muscarine M2): > 50.1 µM
- EC50 (α1 nicotinic AChR): > 50.1 µM
- EC50 (Dopamine D2): > 100 µM
- EC50 (Opioid μ): > 100 µM
- EC50 (Serotonin 5HT2C): > 25.1 µM
- EC50 (Opioid κ): > 100 µM
- EC50 (AhR): > 100 µM
- EC50 (Serotonin 5HT1B [3]): > 100 µM
- EC50 (PXR): > 50.1 µM
- EC50 (Serotonin 5HT3 [4]): > 50.1 µM
- Kd (NQO2): 4 to 6 µM
